Tested on: 429239-143-T-J1-PDC complex spheroid viability
Assay: Anticancer human tumor 429239-143-T-J1-PDC patient-derived small cell lung carcinoma cell line growth inhibition [POLQ]
Conditions: for IC50: curve of first compound; for viability, T/C: stronger effect = lower value
Experimental: Multicellular complex tumor spheroid response to Polymerase (POL) inhibitors (novobiocin, ART-558, RP6685) in combination with a variety of drugs and investigational agents in selected tumor cell lines
The POL inhibitors (novobiocin, ART-558, and RP6685) were evaluated both individually and in combination with standard of care and investigational anticancer small molecules within a complex spheroid model of solid tumors. . Complex spheroids include a stromal component modeled by human endothelial cells (HUVEC) and fibroblasts modeled by human mesenchymal stem cells (MSCs). The concentration ranges selected for each drug and investigational agent were based upon clinically achievable concentrations if the clinical Cmax of the agent was known.
Compounds. The drugs and investigational agents: novobiocin (NSC847541), ART-558 (NSC835418), RP-6685 (NSC848927), peposertib (NSC802822), ceralasertib (NSC780249), elimusertib (NSC800525), camonsertib (NSC841442), AZD-1390 (NSC803789), olaparib (NSC753686), talazoparib (NSC767125), rucaparib (NSC756644), sotorasib (NSC818433), MRTX-1133 (NSC836407), SN-38 (NSC673596), topotecan (NSC609699), epotoside (NSC141540), doxorubicin (NSC123127), gemcitabine (NSC613327), 5-fluorouracil (NSC19893), paclitaxel (NSC125973), vemurafenib (NSC761431), MSA-2 (NSC828583), SN-011 (NSC837082), adavosertib (NSC754352), prexasertib (NSC758257), carboplatin (NSC241240) and oxaliplatin (NSC266046), were obtained from the National Cancer Institute (NCI) Developmental Therapeutics Program Chemical Repository (21). The FDA-approved anticancer drug set is available from the Developmental Therapeutics Program at https://dtp.cancer.gov/organization/dscb/obtaining/. […] The stock solutions were prepared in dimethyl sulfoxide (DMSO, Sigma-Aldrich, St. Louis, MO, cat. D2650), except for the platinum compounds which were prepared in saline (Quality Biological, Gaithersburg, MD, cat. 114-055-101), at 800-fold the tested concentration and stored at -70 degrees C prior to their use. All drugs and investigational agents were tested over a range starting from a high concentration at or near the clinical Cmax and decreasing in half-log increments. If the clinical Cmax for an agent had not been determined, the highest concentration tested was 10 microM, except for SN-38, which was tested at a high concentration of 1 microM.
Cell Culture. All cells were maintained in an incubator at 37 degrees C and 5% CO2 with 95% humidity. The PDC lines were cultured according to standard operating procedures established by the NCI PDMR (https://pdmr.cancer.gov). Table 3 of the manuscript, lists the cell lines along with the number of the three cell types plated to form the mct-spheroids and media for tumor cell growth. After thawing, all PDC lines, except 997537-175-T-J1-PDC and 415267-285-R-J2-PDC, were cultured in Matrigel-coated flasks prepared with a working solution of 1X Ham's F-12 nutrient mix, without supplementation (Thermo Fisher Scientific, cat. 11765054), 100 U/mL penicillin-streptomycin (Thermo Fisher Scientific, cat. 15140122), and 2.5% Matrigel (Corning Inc., Corning, NY, cat. 354248) for the first three passages. The two PDC lines 997537-175-T-J1-PDC and 415267-285-R-J2-PDC were cultured on uncoated flasks. The 857933-349-R-J2-PDC line was cultured in 6C/Colon 1B media containing advanced DMEM/F-12 (Thermo Fisher Scientific, cat. 12634028), 10 mM HEPES (Thermo Fisher Scientific, cat. 15630080), 1X GlutaMAX supplement (Thermo Fisher Scientific, cat. 35050061), 0.1 mg/mL primocin (InvivoGen, San Diego, CA, cat. ant-pm-2), 10% defined fetal bovine serum, heat inactivated (HyClone Laboratories Inc., Logan, UT, cat. SH30070.03HI), 50% L-WRN conditioned media (ATCC, cat. CRL-3276), 1.25 mM N-Acetyl-L-cysteine (Sigma-Aldrich, cat. A9165), 10 mM nicotinamide (Sigma-Aldrich, cat. N0636), 1X B-27 supplement (Thermo Fisher Scientific, cat. 17504044), 1X N-2 supplement (Thermo Fisher Scientific, cat. […]

[1] = second compound 0.0316 µM, first compound 0.0316 µM
[2] = second compound 0.0316 µM, first compound 0.1 µM
[3] = second compound 0.0316 µM, first compound 0.316 µM
[4] = second compound 0.0316 µM, first compound 1 µM
[5] = second compound 0.0316 µM, first compound 3.16 µM
[6] = second compound 0.0316 µM, first compound 10 µM
[7] = second compound 0.1 µM, first compound 0.0316 µM
[8] = second compound 0.1 µM, first compound 0.1 µM
[9] = second compound 0.1 µM, first compound 0.316 µM
[10] = second compound 0.1 µM, first compound 1 µM
[11] = second compound 0.1 µM, first compound 3.16 µM
[12] = second compound 0.1 µM, first compound 10 µM
[13] = second compound 0.316 µM, first compound 0.0316 µM
[14] = second compound 0.316 µM, first compound 0.1 µM
[15] = second compound 0.316 µM, first compound 0.316 µM
[16] = second compound 0.316 µM, first compound 1 µM
[17] = second compound 0.316 µM, first compound 3.16 µM
[18] = second compound 0.316 µM, first compound 10 µM
[19] = second compound 1 µM, first compound 0.0316 µM
[20] = second compound 1 µM, first compound 0.1 µM
[21] = second compound 1 µM, first compound 0.316 µM
[22] = second compound 1 µM, first compound 1 µM
[23] = second compound 1 µM, first compound 3.16 µM
[24] = second compound 1 µM, first compound 10 µM
[25] = second compound 3.16 µM, first compound 0.0316 µM
[26] = second compound 3.16 µM, first compound 0.1 µM
[27] = second compound 3.16 µM, first compound 0.316 µM
[28] = second compound 3.16 µM, first compound 1 µM
[29] = second compound 3.16 µM, first compound 3.16 µM
[30] = second compound 3.16 µM, first compound 10 µM
[31] = second compound 10 µM, first compound 0.0316 µM
[32] = second compound 10 µM, first compound 0.1 µM
[33] = second compound 10 µM, first compound 0.316 µM
[34] = second compound 10 µM, first compound 1 µM
[35] = second compound 10 µM, first compound 3.16 µM
[36] = second compound 10 µM, first compound 10 µM
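Note: luminescence signal used as surrogate measure of viable cells; spheroids exposed to compounds for seven days before readout.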
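Throughout, for viability, T/C: 100% = DMSO vehicle control viability as luminescence relative to vehicle.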

## CCc1cc2c(N3CCc4c(cc(Cn5ccnc5)cc4-c4cn(C)nc4C(F)(F)F)C3=O)cc(C)nc2c(OC)n1 + Cc1cccc(N(C)C(=O)C2C(O)CCN2c2nc(C)cc(C(F)(F)F)c2C#N)c1
Second compound 0.0316 µM
  IC50: > 10 µM
Second compound 0.1 µM
  IC50: > 10 µM
Second compound 0.316 µM
  IC50: 8.03 µM
Second compound 1 µM
  IC50: 8.37 µM
Second compound 3.16 µM
  IC50: > 10 µM
Second compound 10 µM
  IC50: 4.71 µM
[1]
  viability, T/C: 110%
[2]
  viability, T/C: 97.7%
[3]
  viability, T/C: 95%
[4]
  viability, T/C: 85.6%
[5]
  viability, T/C: 72.7%
[6]
  viability, T/C: 48.5%
[7]
  viability, T/C: 104%
[8]
  viability, T/C: 104%
[9]
  viability, T/C: 87.6%
[10]
  viability, T/C: 79%
[11]
  viability, T/C: 74.5%
[12]
  viability, T/C: 49.8%
[13]
  viability, T/C: 104%
[14]
  viability, T/C: 99.6%
[15]
  viability, T/C: 92.3%
[16]
  viability, T/C: 78.2%
[17]
  viability, T/C: 78.8%
[18]
  viability, T/C: 42.5%
[19]
  viability, T/C: 108%
[20]
  viability, T/C: 96.1%
[21]
  viability, T/C: 91.8%
[22]
  viability, T/C: 85%
[23]
  viability, T/C: 74.3%
[24]
  viability, T/C: 44.1%
[25]
  viability, T/C: 105%
[26]
  viability, T/C: 101%
[27]
  viability, T/C: 91.6%
[28]
  viability, T/C: 90.6%
[29]
  viability, T/C: 77.5%
[30]
  viability, T/C: 54.6%
[31]
  viability, T/C: 108%
[32]
  viability, T/C: 98.9%
[33]
  viability, T/C: 85.3%
[34]
  viability, T/C: 82.5%
[35]
  viability, T/C: 63.3%
[36]
  viability, T/C: 28.6%

## C#Cc1c(F)ccc2cc(O)cc(-c3ncc4c(N5CC6CCC(C5)N6)nc(OCC56CCCN5CC(F)C6)nc4c3F)c12 (stereo unspecified) + Cc1cccc(N(C)C(=O)C2C(O)CCN2c2nc(C)cc(C(F)(F)F)c2C#N)c1
Second compound 0.0316 µM
  IC50: > 10 µM
Second compound 0.1 µM
  IC50: > 10 µM
Second compound 0.316 µM
  IC50: > 10 µM
Second compound 1 µM
  IC50: > 10 µM
Second compound 3.16 µM
  IC50: > 10 µM
Second compound 10 µM
  IC50: > 10 µM
[1]
  viability, T/C: 91%
[2]
  viability, T/C: 92.4%
[3]
  viability, T/C: 97.1%
[4]
  viability, T/C: 98.9%
[5]
  viability, T/C: 98.9%
[6]
  viability, T/C: 100%
[7]
  viability, T/C: 117%
[8]
  viability, T/C: 110%
[9]
  viability, T/C: 89.7%
[10]
  viability, T/C: 101%
[11]
  viability, T/C: 91.1%
[12]
  viability, T/C: 103%
[13]
  viability, T/C: 99.6%
[14]
  viability, T/C: 100%
[15]
  viability, T/C: 98.5%
[16]
  viability, T/C: 93.8%
[17]
  viability, T/C: 89.2%
[18]
  viability, T/C: 93.5%
[19]
  viability, T/C: 101%
[20]
  viability, T/C: 108%
[21]
  viability, T/C: 105%
[22]
  viability, T/C: 92.5%
[23]
  viability, T/C: 89.9%
[24]
  viability, T/C: 92.5%
[25]
  viability, T/C: 90.2%
[26]
  viability, T/C: 88.4%
[27]
  viability, T/C: 106%
[28]
  viability, T/C: 86.3%
[29]
  viability, T/C: 95.4%
[30]
  viability, T/C: 92%
[31]
  viability, T/C: 100%
[32]
  viability, T/C: 78.3%
[33]
  viability, T/C: 101%
[34]
  viability, T/C: 86%
[35]
  viability, T/C: 103%
[36]
  viability, T/C: 100%

## COc1ccc([C@@H](O)c2cc(-c3ncnc4cc(N5CCOCC5)ccc34)c(F)cc2Cl)nn1 + COC1C(OC(N)=O)C(O)C(Oc2ccc3c(O)c(NC(=O)c4ccc(O)c(CC=C(C)C)c4)c(=O)oc3c2C)OC1(C)C
Second compound 0.0316 µM
  IC50: 3.07 µM
Second compound 0.1 µM
  IC50: 3.33 µM
Second compound 0.316 µM
  IC50: 3.95 µM
Second compound 1 µM
  IC50: 3 µM
Second compound 3.16 µM
  IC50: 3.78 µM
Second compound 10 µM
  IC50: 3.64 µM
[1]
  viability, T/C: 99.5%
[2]
  viability, T/C: 89.1%
[3]
  viability, T/C: 94.5%
[4]
  viability, T/C: 85.6%
[5]
  viability, T/C: 49.1%
[6]
  viability, T/C: 8.54%
[7]
  viability, T/C: 96.2%
[8]
  viability, T/C: 87.7%
[9]
  viability, T/C: 100%
[10]
  viability, T/C: 87.2%
[11]
  viability, T/C: 51.9%
[12]
  viability, T/C: 10.8%
[13]
  viability, T/C: 109%
[14]
  viability, T/C: 101%
[15]
  viability, T/C: 99.4%
[16]
  viability, T/C: 85.4%
[17]
  viability, T/C: 60%
[18]
  viability, T/C: 9.63%
[19]
  viability, T/C: 103%
[20]
  viability, T/C: 96.8%
[21]
  viability, T/C: 92.5%
[22]
  viability, T/C: 76.4%
[23]
  viability, T/C: 48.7%
[24]
  viability, T/C: 9.8%
[25]
  viability, T/C: 96.6%
[26]
  viability, T/C: 102%
[27]
  viability, T/C: 91.1%
[28]
  viability, T/C: 93.4%
[29]
  viability, T/C: 57%
[30]
  viability, T/C: 11.2%
[31]
  viability, T/C: 107%
[32]
  viability, T/C: 107%
[33]
  viability, T/C: 95.3%
[34]
  viability, T/C: 78.3%
[35]
  viability, T/C: 59.3%
[36]
  viability, T/C: 8.07%

Source: PubChem BioAssay AID1963845 (Molecular Pharmacology Branch, DTP, NCI, 2024)
